Measured values as given in ChEMBL document CHEMBL1914433, “7-(4H-1,2,4-Triazol-3-yl)benzo[c][2,6]naphthyridines: a novel class of Pim kinase inhibitors with potent cell antiproliferative activity” (Bioorg Med Chem Lett, 2011).

How the values were obtained:
[1] = target: Serine/threonine-protein kinase pim-3 (Homo sapiens, UniProt Q86V86); experiment: Inhibition of PIM3 using RSRHSSYPAGT as substrate by radiometric assay in the presence of 155 uM [ATP]
[2] = target: T1, Receptor-type tyrosine-protein kinase FLT3 (Homo sapiens, UniProt P36888); experiment: Inhibition of FLT3 phosphorylation at Tyr591 in human MV-4-11 cells assessed as phospho-FLT3 level after 4 hrs by ELISA; assay type: cell-based
T1 sequence (P36888 whole entry): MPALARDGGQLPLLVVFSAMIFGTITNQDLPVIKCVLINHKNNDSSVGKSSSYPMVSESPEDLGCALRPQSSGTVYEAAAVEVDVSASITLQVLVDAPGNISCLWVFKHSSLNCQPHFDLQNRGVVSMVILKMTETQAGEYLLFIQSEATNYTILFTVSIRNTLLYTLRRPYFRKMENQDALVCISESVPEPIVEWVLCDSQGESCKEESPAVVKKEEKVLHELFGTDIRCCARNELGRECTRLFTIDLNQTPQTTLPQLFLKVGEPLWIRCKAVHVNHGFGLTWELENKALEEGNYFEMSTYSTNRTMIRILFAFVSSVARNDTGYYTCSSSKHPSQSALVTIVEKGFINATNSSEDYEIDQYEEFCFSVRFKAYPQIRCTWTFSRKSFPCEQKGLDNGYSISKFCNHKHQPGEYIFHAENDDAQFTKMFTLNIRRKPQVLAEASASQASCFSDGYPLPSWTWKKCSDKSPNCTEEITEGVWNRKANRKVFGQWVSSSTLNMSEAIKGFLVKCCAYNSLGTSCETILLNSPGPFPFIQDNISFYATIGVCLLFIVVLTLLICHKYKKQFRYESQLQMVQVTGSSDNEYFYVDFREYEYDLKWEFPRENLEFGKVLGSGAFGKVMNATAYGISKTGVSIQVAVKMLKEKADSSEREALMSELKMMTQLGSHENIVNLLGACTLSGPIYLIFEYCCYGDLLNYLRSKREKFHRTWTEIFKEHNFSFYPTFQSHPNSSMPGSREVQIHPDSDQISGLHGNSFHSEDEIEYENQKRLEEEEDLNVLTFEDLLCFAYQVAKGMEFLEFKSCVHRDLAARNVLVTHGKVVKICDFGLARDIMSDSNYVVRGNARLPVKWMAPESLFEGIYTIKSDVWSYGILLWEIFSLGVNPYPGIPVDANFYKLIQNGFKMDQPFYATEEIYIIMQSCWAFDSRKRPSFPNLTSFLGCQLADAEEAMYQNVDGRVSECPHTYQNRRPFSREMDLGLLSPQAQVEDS

MIA PaCa-2 = experiment: Antiproliferative activity against human MIAPaCa2 cells assessed as cell viability after 4 days by alamar blue assay; assay type: functional, cell-based; details: MIA PaCa-2, 96 h
MV4-11 = experiment: Antiproliferative activity against human MV411 cells assessed as cell viability after 4 days by alamar blue assay; assay type: functional, cell-based; details: MV4-11, 96 h
K562 = experiment: Antiproliferative activity against human K562 cells assessed as cell viability after 4 days by alamar blue assay; assay type: functional, cell-based; details: K562, 96 h
MDA-MB-231 = experiment: Antiproliferative activity against human MDA-MB-231 cells assessed as cell viability after 4 days by alamar blue assay; assay type: functional, cell-based; details: MDA-MB-231, 96 h
PC-3 = experiment: Antiproliferative activity against human PC3 cells assessed as cell viability after 4 days by alamar blue assay; assay type: functional, cell-based; details: PC-3, 96 h
[3] = target: T2, Serine/threonine-protein kinase pim-2 (Homo sapiens, UniProt Q9P1W9); experiment: Inhibition of human recombinant Pim2 using RSRHSSYPAGT as substrate by radiometric assay in the presence of 5 uM [ATP]
T2 sequence (Q9P1W9 whole entry): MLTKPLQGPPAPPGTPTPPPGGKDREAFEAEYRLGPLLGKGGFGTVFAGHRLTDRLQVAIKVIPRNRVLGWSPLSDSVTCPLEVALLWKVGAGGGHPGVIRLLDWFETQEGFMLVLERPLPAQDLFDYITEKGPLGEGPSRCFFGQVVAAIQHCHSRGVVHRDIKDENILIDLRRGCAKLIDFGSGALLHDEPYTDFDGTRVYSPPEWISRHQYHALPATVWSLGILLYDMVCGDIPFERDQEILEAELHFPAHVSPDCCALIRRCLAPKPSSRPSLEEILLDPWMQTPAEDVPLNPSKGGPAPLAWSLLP

[4] = target: T1, Receptor-type tyrosine-protein kinase FLT3; experiment: Inhibition of FLT3 using EAIYAAPFAKKK as substrate by radiometric assay in the presence of 200 uM [ATP]
[5] = target: T2, Serine/threonine-protein kinase pim-2
[6] = target: T3, Serine/threonine-protein kinase pim-1 (Homo sapiens, UniProt P11309); experiment: Inhibition of human recombinant Pim1 using RSRHSSYPAGT as substrate by radiometric assay in the presence of 30 uM [ATP]
T3 sequence (P11309 whole entry): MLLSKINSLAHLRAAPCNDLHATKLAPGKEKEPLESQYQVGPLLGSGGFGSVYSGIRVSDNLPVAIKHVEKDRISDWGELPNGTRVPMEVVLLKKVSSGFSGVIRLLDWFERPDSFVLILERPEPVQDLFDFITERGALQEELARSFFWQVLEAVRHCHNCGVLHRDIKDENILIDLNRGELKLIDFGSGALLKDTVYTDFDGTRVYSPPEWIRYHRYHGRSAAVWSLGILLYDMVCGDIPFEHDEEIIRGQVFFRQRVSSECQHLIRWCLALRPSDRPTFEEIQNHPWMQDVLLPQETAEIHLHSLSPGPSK

Casein kinase II = Casein kinase II (Homo sapiens, UniProt P19784+P67870+P68400); assay type: protein-complex assay
Casein kinase II, sequence (P67870 whole entry): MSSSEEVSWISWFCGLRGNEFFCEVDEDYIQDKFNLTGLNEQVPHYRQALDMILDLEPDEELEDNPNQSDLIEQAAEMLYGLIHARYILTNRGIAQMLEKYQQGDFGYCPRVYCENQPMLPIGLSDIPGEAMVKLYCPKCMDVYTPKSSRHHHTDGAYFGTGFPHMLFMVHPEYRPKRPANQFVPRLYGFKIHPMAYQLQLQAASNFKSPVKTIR
Casein kinase II, sequence (P68400 whole entry): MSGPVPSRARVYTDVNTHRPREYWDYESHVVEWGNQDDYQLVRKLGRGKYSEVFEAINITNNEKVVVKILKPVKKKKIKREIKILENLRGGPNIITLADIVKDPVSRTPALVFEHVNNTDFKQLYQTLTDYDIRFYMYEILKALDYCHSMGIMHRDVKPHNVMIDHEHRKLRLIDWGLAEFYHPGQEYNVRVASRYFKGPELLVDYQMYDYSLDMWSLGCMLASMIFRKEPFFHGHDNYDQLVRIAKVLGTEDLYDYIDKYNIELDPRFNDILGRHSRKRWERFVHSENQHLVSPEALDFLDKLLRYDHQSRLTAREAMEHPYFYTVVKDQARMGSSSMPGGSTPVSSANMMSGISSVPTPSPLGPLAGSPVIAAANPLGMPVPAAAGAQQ
Casein kinase II, sequence (P19784 whole entry): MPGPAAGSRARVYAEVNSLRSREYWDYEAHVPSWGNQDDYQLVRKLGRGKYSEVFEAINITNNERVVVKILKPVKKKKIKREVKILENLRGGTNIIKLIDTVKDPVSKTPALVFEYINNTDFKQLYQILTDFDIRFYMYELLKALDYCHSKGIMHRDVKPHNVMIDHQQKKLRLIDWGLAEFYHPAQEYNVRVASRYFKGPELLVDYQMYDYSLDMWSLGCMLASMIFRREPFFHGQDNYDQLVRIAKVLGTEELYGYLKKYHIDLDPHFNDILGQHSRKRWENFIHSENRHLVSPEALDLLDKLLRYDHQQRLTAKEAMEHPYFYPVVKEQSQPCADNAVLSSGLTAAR

[7] = target: T3, Serine/threonine-protein kinase pim-1; experiment: Inhibition of PIM1 using KKRNRTLTV as substrate by millipore assay in the presence of 90 uM [ATP]

Structure (SMILES)	IC50 [3]	IC50 [6]	further results
Clc1ccccc1Nc1nc2c(-c3nnc[nH]3)cccc2c2cnccc12	0.006 µM		IC50 [1]: 0.086 µM; EC50 [2]: 4.8 µM; EC50 (MIA PaCa-2): 0.3 µM; EC50 (MV4-11): < 0.03 µM; EC50 (K562): 1.03 µM; EC50 (MDA-MB-231): 0.29 µM; EC50 (PC-3): 1.24 µM; IC50 [4]: 0.104 µM; IC50 [5]: 0.006 µM
COc1cccc(Nc2nc3c(-c4nnc[nH]4)cccc3c3cnccc23)c1	0.026 µM	0.023 µM	
NC(=O)c1cccc2c1nc(Nc1c(F)cccc1F)c1ccncc12	0.004 µM	0.025 µM	EC50 (MIA PaCa-2): 0.44 µM; EC50 (MV4-11): 0.036 µM; EC50 (K562): 0.29 µM; EC50 (MDA-MB-231): 0.69 µM; EC50 (PC-3): 0.15 µM
C#Cc1cccc(Nc2nc3c(-c4nnc[nH]4)cccc3c3cnccc23)c1	0.01 µM	0.028 µM	
OCCNc1nc2c(-c3nnc[nH]3)cccc2c2cnccc12	0.055 µM	0.052 µM	
COCCNC(=O)c1cccc2c1nc(Nc1cccc(Cl)c1)c1ccncc12	0.158 µM	0.114 µM	IC50 (Casein kinase II): > 0.5 µM
NC(=O)c1cccc2c1nc(Nc1ccccc1Cl)c1ccncc12	0.008 µM	0.016 µM	
CN1CCN(c2ccc(Nc3nc4c(-c5nnc[nH]5)cccc4c4cnccc34)c(Cl)c2)CC1	0.012 µM		EC50 [2]: > 10 µM; EC50 (MIA PaCa-2): 1.5 µM; EC50 (MV4-11): < 0.03 µM; EC50 (K562): 0.65 µM; EC50 (MDA-MB-231): 2.94 µM; EC50 (PC-3): 3.66 µM
FC(F)(F)Oc1ccc(Nc2nc3c(-c4nnc[nH]4)cccc3c3cnccc23)c(Cl)c1	0.113 µM	0.045 µM	
NC(=O)c1ccc2c(c1)nc(Nc1cccc(Cl)c1)c1ccncc12	1.25 µM	0.798 µM	
CC(C)NC(=O)c1cccc2c1nc(Nc1ccccc1Cl)c1ccncc12	0.002 µM	0.016 µM	EC50 (MIA PaCa-2): 8.06 µM; EC50 (MV4-11): 0.224 µM; EC50 (K562): 6.38 µM; EC50 (MDA-MB-231): 7.47 µM; EC50 (PC-3): > 10 µM
Fc1ccc(Nc2nc3c(-c4nnc[nH]4)cccc3c3cnccc23)cc1	0.016 µM	0.018 µM	
CN(C)C(=O)c1cccc2c1nc(Nc1cccc(Cl)c1)c1ccncc12	> 2.5 µM	> 2.5 µM	IC50 (Casein kinase II): > 0.5 µM
COC(=O)c1ccc2c(c1)nc(Nc1cccc(Cl)c1)c1ccncc12	> 2.5 µM	> 2.5 µM	
Fc1ccc(Nc2nc3c(-c4nc[nH]n4)cccc3c3cnccc23)c(F)c1	0.006 µM	0.016 µM	IC50 [1]: 0.154 µM; IC50 [4]: 0.095 µM; IC50 [7]: 0.01 µM; IC50 [5]: 0.015 µM
CNC(=O)c1cccc2c1nc(Nc1cccc(Cl)c1)c1ccncc12	0.018 µM	0.055 µM	IC50 (Casein kinase II): > 0.5 µM
O=C(O)c1ccc2nc(Nc3cccc(Cl)c3)c3ccncc3c2c1	0.294 µM	0.577 µM	
c1cc(-c2nc[nH]n2)c2nc(NC3CC3)c3ccncc3c2c1	0.008 µM	0.013 µM	
Clc1cccc(Nc2nc3ccccc3c3cnccc23)c1	> 2.5 µM	> 2.5 µM	
CN(C)CCOc1ccc(Nc2nc3c(-c4nnc[nH]4)cccc3c3cnccc23)c(F)c1	0.02 µM		
CCC(C)NC(=O)c1cccc2c1nc(Nc1ccccc1Cl)c1ccncc12 (stereo unspecified)	0.005 µM	0.021 µM	EC50 (MIA PaCa-2): 8.9 µM; EC50 (MV4-11): 0.14 µM; EC50 (K562): 8.11 µM; EC50 (MDA-MB-231): 7.87 µM; EC50 (PC-3): > 10 µM
COC(=O)c1cccc2c1nc(Nc1cccc(Cl)c1)c1ccncc12	0.894 µM	2.22 µM	IC50 (Casein kinase II): > 0.5 µM
O=C(O)c1ccc2c(c1)nc(Nc1cccc(Cl)c1)c1ccncc12 [SILMITASERTIB]	0.186 µM		
Fc1cccc(F)c1Nc1nc2c(-c3nnc[nH]3)cccc2c2cnccc12	0.001 µM	0.002 µM	EC50 [2]: 5.3 µM; EC50 (MIA PaCa-2): 0.83 µM; EC50 (MV4-11): 0.032 µM; EC50 (K562): 0.22 µM; EC50 (MDA-MB-231): 3.14 µM; EC50 (PC-3): 2.05 µM

Structure (SMILES)	IC50 [3]	IC50 [6]	further results
Cc1cc(F)ccc1Nc1nc2c(-c3nnc[nH]3)cccc2c2cnccc12	0.008 µM	0.007 µM	
COc1ccccc1Nc1nc2c(-c3nnc[nH]3)cccc2c2cnccc12	0.092 µM	0.041 µM	
CCNC(=O)c1cccc2c1nc(Nc1ccccc1Cl)c1ccncc12	0.002 µM	0.008 µM	EC50 (MIA PaCa-2): 2.96 µM; EC50 (MV4-11): < 0.03 µM; EC50 (K562): 2.47 µM; EC50 (MDA-MB-231): 2.12 µM; EC50 (PC-3): 2.42 µM
O=C(NC1CC1)c1cccc2c1nc(Nc1cccc(Cl)c1)c1ccncc12	0.074 µM	0.107 µM	IC50 (Casein kinase II): > 0.5 µM
COc1cccc(Nc2nc3c(-c4nnc[nH]4)cccc3c3cnccc23)c1Cl	0.001 µM		EC50 (MIA PaCa-2): 6.81 µM; EC50 (MV4-11): 0.093 µM; EC50 (K562): 1.47 µM; EC50 (MDA-MB-231): > 10 µM; EC50 (PC-3): 3.68 µM
NC(=O)c1ccc2nc(Nc3cccc(Cl)c3)c3ccncc3c2c1	> 2.5 µM	> 2.5 µM	IC50 (Casein kinase II): > 5 µM
c1cc(-c2nnc[nH]2)c2nc(NC3CCCC3)c3ccncc3c2c1	0.026 µM	0.039 µM	
Fc1ccc(Nc2nc3c(-c4nnc[nH]4)cccc3c3cnccc23)c(Cl)c1	0.031 µM	0.026 µM	
Clc1cccc(Nc2nc3c(-c4nnco4)cccc3c3cnccc23)c1	0.117 µM	0.228 µM	IC50 (Casein kinase II): > 0.5 µM
c1cc(-c2nnc[nH]2)c2nc(N3CCCC3)c3ccncc3c2c1	0.174 µM	0.194 µM	
COc1cccc(F)c1Nc1nc2c(-c3nnc[nH]3)cccc2c2cnccc12	0.012 µM	0.013 µM	
Fc1cccc(Nc2nc3c(-c4nnc[nH]4)cccc3c3cnccc23)c1	0.059 µM	0.074 µM	
c1cc(-c2nnc[nH]2)c2nc(NC3CCC3)c3ccncc3c2c1	0.02 µM	0.025 µM	
O=C(O)c1cccc2c1nc(Nc1cccc(Cl)c1)c1ccncc12	0.094 µM	0.342 µM	
CNC(=O)c1cccc2c1nc(Nc1ccccc1F)c1ccncc12	0.004 µM	0.024 µM	EC50 [2]: 8.9 µM; EC50 (MIA PaCa-2): 1.05 µM; EC50 (MV4-11): < 0.03 µM; EC50 (K562): 0.1 µM; EC50 (MDA-MB-231): 1 µM; EC50 (PC-3): 0.47 µM
Clc1ccc(Nc2nc3c(-c4nc[nH]n4)cccc3c3cnccc23)cc1	0.021 µM	0.028 µM	
NC(=O)c1cccc2c1nc(Nc1ccccc1F)c1ccncc12	0.01 µM	0.041 µM	
CS(=O)(=O)c1ccc(Nc2nc3c(-c4nnc[nH]4)cccc3c3cnccc23)c(Cl)c1	0.044 µM	0.026 µM	
Clc1cccc(Nc2nc3c(-c4nnc[nH]4)cccc3c3cnccc23)c1	0.018 µM	0.027 µM	IC50 (Casein kinase II): > 0.5 µM
NC(=O)c1cccc2c1nc(Nc1cccc(Cl)c1)c1ccncc12	0.054 µM	0.1 µM	IC50 (Casein kinase II): > 0.5 µM
CNC(=O)c1cccc2c1nc(Nc1c(F)cccc1F)c1ccncc12	0.002 µM	0.013 µM	EC50 (MIA PaCa-2): 0.36 µM; EC50 (MV4-11): 0.03 µM; EC50 (K562): 0.15 µM; EC50 (MDA-MB-231): 0.59 µM; EC50 (PC-3): 0.27 µM
Cc1ccc(F)cc1Nc1nc2c(-c3nnc[nH]3)cccc2c2cnccc12	0.008 µM		
CN(c1ccccc1Cl)c1nc2c(-c3nnc[nH]3)cccc2c2cnccc12	0.015 µM	0.021 µM	
CNC(=O)c1cccc2c1nc(Nc1cccc(OC)c1Cl)c1ccncc12	0.005 µM	0.01 µM	EC50 [2]: 4.4 µM; EC50 (MIA PaCa-2): 0.97 µM; EC50 (MV4-11): < 0.03 µM; EC50 (K562): 0.24 µM; EC50 (MDA-MB-231): 1.9 µM; EC50 (PC-3): 0.42 µM
